What was measured:
female Wistar rats = experiment: Acute carageenan paw edema model, paw volume by plethysmometer (Control 2 / Example 3); format: in vivo; conditions: indomethacin 2 mg/kg oral, 30 minutes before carageenan, paw volume 2.5 hours after carageenan
Method: Eight female Wistar rats weighing approximately 100 grams were allowed free access to food and water. A tatoo line was inscribed onto the right rear paw just below the hair line. Initial paw volume was measured by a transducer-linked plethysmometer (Stoelting Co., Chicago, Illinois) which contained a saline solution. The instrument measures paw volumes by an electrical charge difference across two electrodes resulting from the volume displacement by the paw. A transducer corrects this charge difference into cubic centimeters of volume displaced. Following immersion of the paw in the perspex cell to the inscribed line, a direct measurement of the displacement volume was recorded. Rats were orally dosed with 2 mg/kg body weight of indomethacin in polyethylene glycol 400. At 30 minutes post treatment, rats received an injection of 0.1 ml of 1.5% carageenan in saline […] directly into the rear paw pad. The paw volume was again determined 2.5 hours after the carageenan administration. The edema intensity (EI) was calculated: [formula] and averaged for the eight rats. The paw volumes for the eight rats were averaged and the percent swelling inhibition was calculated: % swelling Reduction: [formula] […] Rats were orally dosed with the liposomes, and percent swelling reduction was calculated as in Example 2.

rats (Wistar) [1] = experiment: Inducing intestinal ulceration (chronic), 4-day oral dosing (Control 4); format: in vivo; conditions: about 4 mg/kg daily oral over 4 days
Method: Single daily oral dosages of indomethacin at about 4 mg/kg in vehicle or in monophasic vesicles were administered over 4 days. Test animals in this example were rats (Wistar). On the fifth day the full length of the intestines were excised and slit open opposite to the attached mesenteric issue. The mucosal surface was rinsed with saline, the ulcers (including perforations) were quantitated in millimeters as described about or by determination of total surface area of lesions. This was accomplished by means of a planimeter (Zidas, Carl Zeiss, West Germany) optically linked to an SR stereo dissecting microscope (Zeiss) with a draw tube attachment. In this example results were expressed as total mm² of ulcerated surface and as percent inhibition of ulceration when treatment was provided. Average values were calculated based upon a minimum of 5 animals per group from at least duplicate experiments. […] Sham vehicle, however, were nontoxic to the animals. Clearly this method is easily adaptable by those skilled in the art to other nonsteroidal anti-inflammatory therapeutic agents and other animals.

[2] = generally shown by others, cited from earlier work; for half-lives: range for the group
male Wistar rats = experiment: Acute ulceration after one oral dose of indomethacin, ulcer lengths counted in excised stomachs (Control 1 / Example 2); format: in vivo; conditions: indomethacin 10 mg/kg, starved rats, 4 hours after dosing
Method: Twenty 225-250 g male Wistar rats were starved for 18-24 hours prior to dosing. Rats were allowed access to water throughout the study. Ten rats in the free drug control group were then administered one oral dose of indomethacin, dissolved in polyethylene glycol 400 at 7 mg/ml and administered at 10 mg/kg body weight of indomethacin.
Four hours following dosing, rats were sacrificed by carbon dioxide anoxia and their stomachs surgically removed by severing at the cardiac and pyloric sphinctors. The stomachs were opened along the lesser curve, flattened, and washed with saline. Ulcer lengths were counted under a dissecting microscope (American Optical, Buffalo, NY) equipped with an eyepiece micrometer, and lengths were summed and averaged for all animals in a single treatment group.
Ulcer protection was assessed by summing and averaging ulcer lengths (in mm) of the treated group and comparing the value to that of the group administered free drug […]. Percent ulcer inhibition was calculated by dividing the average length of ulceration of the liposome-treated group by the of the corresponding free drug group, and multiplying by 100.
The procedures and materials of Example 1 were employed using 10 mg/kg body weight of indomethacin entrapped in stable plurilamellar vesicles (SPLVs) composed of digalactosyl diglyceride; ulcer protection was assessed as in Example 1.

rats (Wistar) [3] = experiment: Inducing gastric ulcers (acute), oral administration (Control 3); format: in vivo; conditions: for mm Ulceration + SEM: acute oral, 4 hours
Source text: For oral studies, it is convenient to use indomethacin but other nonsteroidal anti-inflammatory therapeutic agent can be similarly employed. This model is also useful in examining other nonsteroidal anti-inflammatory therapeutic agents and other mammals. Simply varying doses will induct gastric ulcers for other agents and mammals in this model. Unlike gastric ulcer protocols, it has been shown that for nonsteroidal anti-inflammatory effects such as indomethacin-induced intestinal lesions to occur, animals must be allowed free acces to food and water during the study.
Indomethacin at dosages between about 2 mg/kg and 10 mg/kg were given in 0.5 ml of neat PEG-400, vehicle or as incorporated into the liposomes at a 200 mg/kg dosage of phospholipid. Four hours following oral administration of test formulations, animals were sacrificed by CO₂ anoxia and the stomachs were excised. For systemically-induced gastric ulceration, dosages of PEG-400 solubilized indomethacin between 4 mg/kg and 50 mg/kg in 0.5 ml were administered subcutaneously. […] Tissue was thoroughly rinsed in saline and the inner mucosal surface was laid flat for microscopic evaluation. Visible ulcers were quantitated using a dissecting microscope (AO Optical, Buffalo, NY) equipped with an eyepiece micrometer. Results using this test were expressed in millimeters of ulceration and in percent inhibition of ulcers where treatment was effected. For all studies, a minimum of 10 animals per experimental group were employed. Experiments were conducted in triplicate, thereby representing a minimum of 30 rats per group.

rat stomach mucosa = conditions: rats dosed with the prostaglandin; cited from earlier work

Compound	blood level half-lives [2]	half-lives [2]	also measured
COc1ccc2c(c1)c(CC(=O)O)c(C)n2C(=O)c1ccc(Cl)cc1 [Indomethacin in PEG-400, indomethacin]	under four	–	% SWELLING REDUCTION (female Wistar rats): 37.2%; mortality rate (rats (Wistar) [1]): 20-30%; mm ULCERATION (male Wistar rats): 43.9 mm; total ulcer length, high reached in individual experiments (rats (Wistar) [3]; 10 mg indomethacin/kg body weight, P.O.): 45 mm; mm Ulceration + SEM (rats (Wistar) [3]; indomethacin 2 mg/kg): 1.1 ± 0.3 mm; mm Ulceration + SEM (rats (Wistar) [3]; indomethacin 4 mg/kg): 3.4 ± 0.8 mm; mm Ulceration + SEM (rats (Wistar) [3]; indomethacin 6 mg/kg): 9.7 ± 1.2 mm; mm Ulceration + SEM (rats (Wistar) [3]; indomethacin 8 mg/kg): 22.3 ± 3.4 mm; mm Ulceration + SEM (rats (Wistar) [3]; indomethacin 10 mg/kg): 23.3 ± 2.6 mm; mm Ulceration + SEM (rats (Wistar) [3]; indomethacin 10 mg/kg, listed as indomethacin in PEG-400): 25 mm
Cc1cccc(Nc2ccccc2C(=O)O)c1C [Mefenamic acid]	about four	–	–
CC(=O)Oc1ccccc1C(=O)O [acetylsalicylic, Acetylsalicylic Acid (ASA)]	under four	–	–
O=C(O)Cc1ccccc1Nc1c(Cl)cccc1Cl [diclofenac]	under four	–	–
O=C(O)c1cc(-c2ccc(F)cc2F)ccc1O [diflunisal]	–	over ten hours to three days	–
CC(C(=O)O)c1cccc(Oc2ccccc2)c1 (stereo not shown) [fenoprofen]	under four	–	–
Cc1ccc(Cl)c(Nc2ccccc2C(=O)O)c1Cl [meclofenamate]	under four	–	–
CCCCC1C(=O)N(c2ccccc2)N(c2ccccc2)C1=O [phenylbutazone]	–	over ten hours to three days	–
CN1C(C(=O)Nc2ccccn2)=C(O)c2ccccc2S1(=O)=O [piroxicam]	–	over ten hours to three days	–
CC1=C(CC(=O)O)c2cc(F)ccc2/C1=C\c1ccc([S+](C)[O-])cc1 (stereo not shown) [sulindac]	–	over ten hours to three days	–
Cc1ccc(C(=O)c2ccc(CC(=O)O)n2C)cc1 [tolmetin]	under four	–	–
Prostaglandin E₂	–	–	increase in the major gastric surface protective surfactant (rat stomach mucosa): 2-6 fold

From EP0249561B1, “Compositions using liposome-encapsulated non-steroidal anti-inflammatory drugs” (THE LIPOSOME COMPANY, INC., priority 1986, dated 1987)
